Consider six compounds from patent US6867043B2, “Peptides that deliver antisense oligonucleotides which downregulate protein expression in cells” (The Trustees of Columbia University in the City of New York, priority 2001, dated 2005).

What is called Kd is the free concentration of one partner at which half of the binding sites on the other are occupied at equilibrium, for simple one-to-one binding.

Oligonucleotides are written 5' to 3', each unit as a sugar letter and its base; * is a phosphorothioate linkage, no mark a phosphodiester; rarer units and linkages stand in square brackets, end groups in braces. Plain capitals give the bases only. {Fluorescein} = fluorescein label; d = 2'-deoxy (DNA)

The test system of data set [1] is T24 cells. In words: Fluorescence confocal microscopy of oligonucleotide delivery to the cell nucleus. Type of data set: cell-based. Conditions: 2 μM 5′-fluorescein-labeled ISIS 3521; 8 μM and 6 μM peptide; T24 cells pretreated with 25 μM chloroquine; 24 hr. Here is the method: The ability of the protamine-NLS peptides to deliver the oligonucleotides into the cell nucleus was evaluated by fluorescence confocal microscopy.
Confocal microscopy: Cells were seeded in glass bottom microwells (MatTec Corp., Mass.), and treated with peptide-oligodeoxynucleotide complexes at 37° C. for 24 hr. Cellular internalization was examined using an LSM 410 laser scanning confocal microscope (Zeiss, Thornwood, N.Y.) equipped with a krypton/argon laser and attached to a Zeiss Axiovert 100 TV microscope. The 515-540 nm bandpass for fluorescein was used. Z-series were taken of a 1 to 2 micron optical section at 2 μm intervals. For measurements, a maximum projection of all sections was employed.

Data set [2] deals with PKC-α. Kind of data set: Western blot of PKC-α protein expression in T24 cells. Type of data set: cell-based. As to conditions: for inhibition of PKC-α protein expression (antisense activity), in words: short-peptide experiments, 2 μM oligonucleotide, 25 μM chloroquine preincubation. Here is the method:
(§1) Experiments using the protamine-NLS peptides to deliver antisense oligonucleotides were performed in T24 bladder carcinoma and PC-3 prostate carcinoma cells. In addition to the 20-mer ISIS 3521, the 18-mer phosphorothioate oligonucleotide G3139 (SEQ ID NO:6) was also employed. G3139 is targeted to the first six codons of the human bcl-2 open reading frame. […] The expression of PKC-α protein was assayed by Western blotting after 24 hr, while the expression of bcl-2 protein in PC3 cells was assayed similarly after a further 48 hr incubation in RPMI media containing 10% FBS. In both cases, the incubations were performed in the continuous presence of the peptide/oligonucleotide complexes.
Treatment of cells with oligonucleotide-peptide complexes: Cells were grown in six-well plates until 65-75% confluent. […] The solution was mixed gently and incubated at room temperature for 30 min to allow oligonucleotide-peptide complexes to form. […] The cells were then incubated at 37° C. for 24 hr (for PKC-α) or re-fed with complete McCoy's 5A media containing 10% FBS and allowed to incubate for an additional 72 hr (for bcl-2) before cell lysis and extract preparation.
(§2) Western Blotting: Cells were treated with peptide-oligodeoxynucleotide complexes, scraped, washed with cold PBS and then extracted in […] of lysis buffer [50 mM Tris-HCl, pH 7.5; 1% NP-40; 0.25% sodium deoxycholate; 150 mM NaCl; 1 mM EGTA; 50 μg/mL Pefablock™ SC; 15 μg/mL aprotinin, leupeptin, chymostatin, and pepstatin A; 1 mM Na3VO4; 1 mM NaF] at 4° C. for 1 hr. Cell debris was removed by centrifugation at 14,000×g for 20 min at 4° C. Protein concentrations were determined using the Bio-Rad protein assay system (Bio-Rad Laboratories, Richmond, Calif.).
Aliquots of cell extracts containing 20-30 μg of protein were resolved by 10% or 12% SDS-polyacrylamide gel electrophoresis and transferred to Hybond ECL filter paper (Amersham, Arlington Heights, Ill.). […]
For orientation: A western blot detects proteins with antibodies after separation by electrophoresis.

In data set [3] the test system is PKC-α. In words: Western blot of PKC-α protein expression in PC3 cells. Type of data set: cell-based. Conditions: for inhibition of PKC-α protein expression, in words: long-peptide experiments, ISIS 3521 0.25-2 μM, ISIS 4559 2 μM, 25 μM chloroquine pre-treatment required; for inhibition of PKC-α protein expression (antisense activity), in words: short-peptide experiments, 2 μM oligonucleotide, 25 μM chloroquine preincubation. Here is the method: as §1
Treatment of cells with oligonucleotide-peptide complexes: Cells were grown in six-well plates until 65-75% confluent. The peptides, at the stated peptide/oligonucleotide molar ratios, were diluted in 500 μL of Opti-MEM medium and oligonucleotide was then added up to the required concentration of 2 μM. The solution was mixed gently and incubated at room temperature for 30 min to allow oligonucleotide-peptide complexes to form. […] The cells were then incubated at 37° C. for 24 hr (for PKC-α) or re-fed with complete McCoy's 5A media containing 10% FBS and allowed to incubate for an additional 72 hr (for bcl-2) before cell lysis and extract preparation.
as §2
Aliquots of cell extracts containing 20-30 μg of protein were resolved by 10% or 12% SDS-polyacrylamide gel electrophoresis and transferred to Hybond ECL filter paper (Amersham, Arlington Heights, Ill.). Filters were incubated at room temperature for 1-2 h in Blotto A [5% non-fat milk powder in TBS-T:10 mM Tris-HCl, pH 8.0, 150 mM NaCl, 0.05% Tween 20 (for PKC-α) and 5% BSA in PBS, 0.5% Tween (for Bcl-2)] and then probed overnight at 4° C. with 1:1000 dilution of anti-PKC- or 1:500 dilution of anti-Bcl-2 in Blotto A. After washing in TBS-T or PBS-T buffer (3×7 min, room temperature), filters were incubated for 1 h at room temperature in 5% milk/TBS-T or 5% milk/PBS-T buffer containing a 1:3,000 dilution of peroxidase-conjugated anti-mouse secondary antibody. […]

In data set [4] the test system is T24 bladder carcinoma cells. Kind of data set: MTT cellular viability assay of paclitaxel-treated T24 cells. Type of data set: cell-based. Conditions: 3 days paclitaxel, 24 hours treatment, 8 μM peptide / 2 μM oligonucleotide, 25 μM chloroquine pretreatment. Here is the method:
As a measure of the effectiveness of the peptide-delivered antisense inhibition of PKC-α the cells treated with peptide were exposed to paclitaxel, a compound commonly used in cancer therapy to inhibit microtubule depolymerization.
Cellular viability assay: Cells were seeded in 96-well tissue culture plates and treated the next day with oligonucleotide-peptide complexes for 24 hr. […] The cells were incubated for 4 hr at 37° C., 5% CO2 with 0.5 mg/mL MTT in complete media. An equal volume of solubilization solution (10% SDS in 0.01 M HCl) was then added and allowed to incubate overnight at 37° C. After the formazan crystals were dissolved, the plates were read on a Dynatech MR600 Microplate Reader at 540 nm.
Statistical analysis of the results was performed using the Analysis ToolPack provided by Microsoft Excel. A Student's two-sample t-test, assuming unequal variances, was used to determine the equality of the means of two samples. The confidence level was 0.05.

Data set [5] addresses ISIS 3521. In words: Fluorescence titration: quenching of peptide Trp fluorescence by bound oligonucleotide. Type of data set: binding. Here is the method: The interaction of ISIS 3521 (SEQ ID NO:5), a 20mer phosphorothioate antisense oligonucleotide, with the short and long protamine-NLS peptides (s-protamine-NLS and l-protamine-NLS) was evaluated by fluorescence spectroscopy. The peptide contains a single Trp residue (position 8 of the short peptide; SEQ ID NO:2) which can be excited at 290 nm and emits fluorescent light at 330 nm. The ability of a bound oligonucleotide to quench this fluorescent emission constitutes a relatively sensitive probe for the monitoring of molecular interactions.
The titration of a 5 μM solution of s-protamine-NLS (SEQ ID NO:2) with increasing concentrations of ISIS 3521 (SEQ ID NO:5), both in PBS and in Opti-MEM (without serum, to mimic transfection conditions), led to dramatic fluorescence quenching. At least two oligonucleotide binding modes can be easily discerned: At low oligonucleotide concentration (relative to s-protamine-NLS peptide) a plot of the decrease in fluorescence (due to quenching) vs. oligonucleotide concentration fits an equation of the Michaelis-Menton type. […] However, as oligonucleotide concentration is increased, Trp fluorescence continues to decline, but a similar plot no longer fits a Michaelis-Menton-type equation, and the binding becomes increasingly complex. Trp fluorescence is finally completely quenched (i.e., 100%) at a 4:1 molar ratio of peptide/oligonucleotide. […]

Data set [6] relates to bcl-2. In words: Western blot of bcl-2 protein expression in PC3 cells. Type of data set: cell-based, human. As to conditions: PC-3 cells; short-peptide experiments; 25 μM chloroquine pretreatment. As for the experimental part:
as §1
Treatment of cells with oligonucleotide-peptide complexes: Cells were grown in six-well plates until 65-75% confluent. […]
Western Blotting: Cells were treated with peptide-oligodeoxynucleotide complexes, scraped, washed with cold PBS and then extracted in […] of lysis buffer [50 mM Tris-HCl, pH 7.5; 1% NP-40; 0.25% sodium deoxycholate; 150 mM NaCl; 1 mM EGTA; 50 μg/mL Pefablock™ SC; 15 μg/mL aprotinin, leupeptin, chymostatin, and pepstatin A; 1 mM Na3VO4; 1 mM NaF] at 4° C. for 1 hr. […] Protein concentrations were determined using the Bio-Rad protein assay system (Bio-Rad Laboratories, Richmond, Calif.). […]

“5′-fluorescein-labeled ISIS 3521: ISIS 3521 labeled with fluorescein at the 5′ end, for confocal microscopy (antisense {Fluorescein}-dG*dT*dT*dC*dT*dC*dG*dC*dT*dG*dG*dT*dG*dA*dG*dT*dT*dT*dC*dA)”: the “delivery of fluoresceinated oligonucleotide to the cell nucleus” value (shortened to “delivery”) in data set [1] is recorded as “internalized poorly”.
Regarding “5′-GTTCTCGCTGGTGAGTTTCA-3′ (antisense dG*dT*dT*dC*dT*dC*dG*dC*dT*dG*dG*dT*dG*dA*dG*dT*dT*dT*dC*dA) [ISIS 3521]”, in data set [2], the “inhibition of PKC-α protein expression (antisense activity), in words” value is “completely ineffective”. In data set [3], the “inhibition of PKC-α protein expression, in words” value is “did not have antisense effects” and the “inhibition of PKC-α protein expression (antisense activity), in words” value was “completely ineffective”. Besides, the “cellular viability (reduction in cell proliferation by MTT assay), in words” value in data set [4] is “no effect on cell viability”.
In the case of “s-protamine-scrambled NLS: control peptide: short protamine fragment with scrambled NLS sequence (RRRRRRWGRRRRRRPKGKRKV; CONTROL PEPTIDE)”, the “delivery” value in data set [1] is “also promotes the delivery of the oligonucleotide to the nucleus”.
In the case of “RRRRRRWGRRRRRRPKKKRKV [s-protamine-NLS, peptide with shorter protamine fragment and SV40 large T-antigen nuclear localization signal]”, the Kd in data set [5] (5 μM s-protamine-NLS titrated with ISIS 3521, low oligonucleotide concentration, R^2=0.99, read-out: Kd from Lineweaver-Burke (double reciprocal) plot of fluorescence quenching) turned out to be 80 nM. Moreover, the Trp fluorescence quenched in data set [5] (at a 4:1 molar ratio of peptide/oligonucleotide) was 100%. The “delivery” value in data set [1] is on record as “effectively delivered fluoresceinated oligonucleotide to the cell nucleus”. Also, the “cellular viability (reduction in cell proliferation by MTT assay), in words” value in data set [4] is given as “no effect on cell viability”.
Consider “l-protamine-NLS: long Arg-rich protamine fragment peptide with C-terminal SV40 large T-antigen nuclear localization signal (RRRRSRRRRRRFGRRRRRRVWRRRRPKKKRKV; NOVEL PEPTIDE - SV40/PROTAMINE SOURCE)”, for which the “inhibition of PKC-α protein expression, in words” value is given as “no effect” in data set [2] (long-peptide experiments, ISIS 3521 0.25, 0.5, 1 μM, ISIS 4559 2 μM, chloroquine not required) and “no effect” in data set [3].
Regarding `CCN(CC)CCCC(C)Nc1ccnc2cc(Cl)ccc12` (stereo not drawn) [chloroquine], the “inhibition of PKC-α protein expression (antisense activity), in words” value in data set [2] and in data set [3] was “did not downregulate PKC-α expression” throughout. Besides, the “inhibition of Bcl-2 expression (antisense activity), in words” value in data set [6] is “totally inactive”.
